Structures can show the parent of a compound that is named as a salt.

In one assay the target is T1, bovine trypsin (Bos taurus, UniProt P00760).
T1 construct: purchased Sigma
T1 sequence (P00760 24-246): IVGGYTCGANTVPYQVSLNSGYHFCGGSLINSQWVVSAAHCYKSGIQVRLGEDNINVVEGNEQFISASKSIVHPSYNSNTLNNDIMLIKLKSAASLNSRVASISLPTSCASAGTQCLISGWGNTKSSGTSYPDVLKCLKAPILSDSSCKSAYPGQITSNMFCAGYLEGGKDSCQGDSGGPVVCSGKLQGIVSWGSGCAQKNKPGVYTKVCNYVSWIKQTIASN
The assay can be described thus: Determination of anti-trypsin activity (S-2222 coloring substrate, absorbance at 405 nm). To be noted: bovine trypsin 0.25 μg-protein/ml, S-2222 0.4 mM, Tris buffer pH 8.4, room temperature, 5 minutes; read-out: Inhibitory Action against Trypsin Activity (IC50 (nM)). The format is biochemical. How it is done: Determination of Anti-trypsin Activity
Anti-trypsin activity was determined according to methods described by Taniuchi et al. [Thromb. Haemost., 79, 543 (1998)], which were partially modified. S-2222, a coloring substrate (5 μl, final concentration: 0.4 mM, Daiichi Pure Chemicals Co., Ltd.) and the test compound (5 μl) were mixed with Tris hydrochloride buffered solution (50 mM, 85 μl, pH: 8.4) containing NaCl (0.9%). To this solution, bovine trypsin (5 μl, final concentration: 0.25 μg-protein/ml, Sigma) was added and the reaction was started. In the control group, distilled water was added to the Tris-buffered solution instead of the test compound. The reaction mixture (in total: 0.1 ml) was incubated at room temperature. Optical absorbance was continuously determined at 405 nm with a 96-well microplate reader (Model 550, Biorad) and increase in the absorbance for 5 minutes was calculated as an indicator of trypsin activity. To assess anti-trypsin activities of the test compounds, concentrations of the test compounds to inhibit the trypsin activity by 50% (IC50) were calculated.

The target of a further assay is T2, human factor-Xa (Homo sapiens, UniProt P00742).
T2 construct: purchased Cosmobio Co., Ltd
T2 sequence (P00742 235-488 limits assumed): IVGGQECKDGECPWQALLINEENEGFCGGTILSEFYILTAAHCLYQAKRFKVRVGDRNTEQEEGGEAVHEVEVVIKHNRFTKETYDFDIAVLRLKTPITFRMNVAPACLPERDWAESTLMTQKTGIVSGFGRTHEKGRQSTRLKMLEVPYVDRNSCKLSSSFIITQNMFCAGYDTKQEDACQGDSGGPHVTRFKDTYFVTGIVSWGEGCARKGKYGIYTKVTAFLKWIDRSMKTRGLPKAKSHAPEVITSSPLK
T2 sequence (P00742 41-179 partner limits assumed): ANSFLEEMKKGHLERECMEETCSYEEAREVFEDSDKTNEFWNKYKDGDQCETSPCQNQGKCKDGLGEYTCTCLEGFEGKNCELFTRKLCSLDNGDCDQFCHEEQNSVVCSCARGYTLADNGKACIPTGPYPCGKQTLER
The assay can be described thus: Determination of anti-factor Xa activity (S-2222 coloring substrate, absorbance at 405 nm). Format: biochemical. As to conditions: human factor-Xa 0.25 unit/ml, S-2222 0.4 mM, Tris buffer pH 8.4, room temperature, 5 minutes; read-out: Inhibitory Action against Factor Xa Activity (IC50 (nM)). How it is done: Determination of Anti-factor Xa Activity
Anti-factor Xa activity was determined according to methods described by Hara et al. [Thrombo. Haemost., 71, 314 (1994)], which were slightly modified. S-2222, a coloring substrate (0.4 mM, Daiichi Pure Chemicals Co., Ltd.) and the test compounds were mixed in Tris hydrochloride buffered solution (50 mM, pH: 8.4) containing NaCl (0.9%). To this solution, human factor-Xa (0.25 unit/ml, Cosmobio Co., Ltd.) was added and the reaction was started. In the control group, distilled water was added to the Tris-buffered solution instead of the test compound. The reaction mixture (in total: 0.1 ml) was incubated at room temperature for 5 minutes. Optical absorbance of the reaction mixture was continuously determined at 405 nm with a 96-well microplate reader (Model 550, Biorad) and increase in the absorbance for 5 minutes was calculated as an indicator of factor Xa activity. To assess anti-factor Xa activities of the test compounds, concentrations of the test compounds to inhibit the factor Xa activity by 50% (IC50) were calculated.

The term IC50 denotes the point on the concentration scale where inhibition reaches its midpoint. As for `N=C(N)c1cccc(/C=C/CN(c2ccc(OC3CCN(C4=NCCO4)CC3)c(Cl)c2)S(=O)(=O)CC(=O)O)c1` [Example 89, N-[3-(3-Amidinophenyl)-2-(E)-propenyl]-N-[3-chloro-4-[1-(4,5-dihydrooxazol-2-yl)piperidin-4-yloxy]phenyl]sulfamoylacetic acid dihydrochloride], the IC50 at bovine trypsin stood at 2000 nM; on human factor-Xa, 11 nM.
`Cc1cc(N(C/C=C/c2cccc(C(=N)N)c2)S(=O)(=O)CC(=O)O)ccc1OC1CCN(C2=NCCC2)CC1` [Example 66, N-[3-(3-Amidinophenyl)-2-(E)-propenyl]-N-[4-[1-(4,5-dihydro-3H-pyrrol-2-yl)piperidin-4-yloxy-]-3-methylphenyl]sulfamoylacetic acid dihydrochloride]: the 50% inhibitory concentration (IC50) on bovine trypsin was 5600 nM; on human factor-Xa it was 8.3 nM.
Regarding `CCOC(=O)CS(=O)(=O)N(C/C=C/c1cccc(C(=N)N)c1)c1ccc(OC2CCN(C(=N)CC)CC2)c(Cl)c1` [Example 49, Ethyl N-[3-(3-amidinophenyl)-2-(E)-propenyl]-N-[3-chloro-4-[1-(1-iminopropyl)piperidin-4-yloxy]phenyl-1 sulfamoylacetatedihydrochloride], the IC50 is 860 nM at bovine trypsin and 6.8 nM on human factor-Xa.
`CCOC(=O)CS(=O)(=O)N(C/C=C/c1cccc(C(=N)N)c1)c1ccc(OC2CCN(C=N)CC2)c(Cl)c1` [Example 47, Ethyl N-[3-(3-amidinophenyl)-2-(E)-propenyl]-N-[3-chloro-4-[(1-formimidoylpiperidin-4-yloxy)phenyl]sulfamoylacetatedihydrochloride]: the IC50 at bovine trypsin turned out to be 790 nM; at human factor-Xa, 6.1 nM.
In the same order, the values of `N=C(N)c1cccc(/C=C/CN(c2ccc(OC3CCN(c4ccncc4)CC3)c(Cl)c2)S(=O)(=O)CC(=O)O)c1` [Example 28, N-[3-(3-Amidinophenyl)-2-(E)-propenyl]-N-[3-chloro-4-[1-(4-pyridyl)piperidin-4-yloxy]phenyl]sulfamoylacetic acid dihydrochloride] are 650 nM and 6.4 nM.
In the same order, the values of `CCOC(=O)CS(=O)(=O)N(C/C=C/c1cccc(C(=N)N)c1)c1ccc(OC2CCN(C3=NCCC3)CC2)c(C)c1` [Example 65, Ethyl N-[3-(3-amidinophenyl)-2-(E)-propenyl]-N-[4-[1-(4,5-dihydro-3H-pyrrol-2-yl)piperidin-4-yloxy]-3-methylphenyl]sulfamoylacetate dihydrochloride] are 2300 nM and 12 nM.
In the same order, the values of `CCC(=N)N1CCC(Oc2ccc(N(C/C=C/c3cccc(C(=N)N)c3)S(=O)(=O)CC(=O)O)cc2Cl)CC1` [Example 50, N-[3-(3-Amidinophenyl)-2-(E)-propenyl]-N-[3-chloro-4-[1-(1-iminopropyl)piperidin-4-yloxy]phenyl]sulfamoylacetic acid dihydrochloride] are 1200 nM and 6.3 nM.
For `CCOC(=O)CS(=O)(=O)N(C/C=C/c1cccc(C(=N)N)c1)c1ccc(OC2CCN(C3=NCCC3)CC2)c(Cl)c1` [Example 53, Ethyl N-[3-(3-amidinophenyl)-2-(E)-propenyl]-N-[3-chloro-4-[1-(4,5-dihydro-3H-pyrrol-2-yl)piperidin-4-yloxy]phenyl]sulfamoylacetate dihydrochloride], the results for the half-inhibitory concentration (IC50) on bovine trypsin and on human factor-Xa were 2100 nM and 6.8 nM, respectively.
The corresponding values for `N=C(N)c1cccc(/C=C/CN(c2ccc(OC3CCN(C4=NCCC4)CC3)c(Cl)c2)S(=O)(=O)CC(=O)O)c1` [Example 54, N-[3-(3-Amidinophenyl)-2-(E)-propenyl]-N-[3-chloro-4-[1-(4,5-dihydro-3H-pyrrol-2-yl)piperidin-4-yloxy]phenyl]sulfamoylacetic acid dihydrochloride] are 2200 nM and 7 nM.
In the case of `CCOC(=O)CS(=O)(=O)N(C/C=C/c1cccc(C(=N)N)c1)c1ccc(OC2CCN(c3ccncc3)CC2)c(Cl)c1` [Example 27, Ethyl N-[3-(3-amidinophenyl)-2-(E)-propenyl]-N-[3-chloro-4-[1-(4-pyridyl)piperidin-4-yloxy]phenyl]sulfamoylacetate dihydrochloride], the IC50 at bovine trypsin amounted to 540 nM; at human factor-Xa, 7.9 nM.
Turning to `CCOC(=O)CS(=O)(=O)N(C/C=C/c1cccc(C(=N)N)c1)c1ccc(OC2CCN(C3=NCCC3)CC2)c(C(F)(F)F)c1` [Example 77, Ethyl N-[3-(3-amidinophenyl)-2-(E)-propenyl]-N-[4-[1-(4,5-dihydro-3H-pyrrol-2-yl)piperidin-4-yloxy]-3-trifluoromethylphenyl]sulfamoylacetate dihydrochloride], the concentration for half-maximal inhibition (IC50) on bovine trypsin is 3700 nM; at human factor-Xa, 12 nM.
In the same order, the values of `N=C(N)c1cccc(/C=C/CN(c2ccc(OC3CCN(C4=NCCC4)CC3)cc2)S(=O)(=O)CC(=O)O)c1` [Example 60, N-[3-(3-Amidinophenyl)-2-(E)-propenyl]-N-[4-[1-(4,5-dihydro-3H-pyrrol-2-yl)piperidin-4-yloxy]phenyl]sulfamoylacetic acid dihydrochloride] are 3100 nM and 14 nM.
The corresponding values for `N=C(N)c1cccc(/C=C/CN(c2ccc(OC3CCN(C4=NCCC4)CC3)c(C(N)=O)c2)S(=O)(=O)CC(=O)O)c1` [Example 72, N-[3-(3-Amidinophenyl)-2-(E)-propenyl]-N-[3-carbamoyl-4-[1-(4,5-dihydro-3H-pyrrol-2-yl)piperidin-4-yloxy]phenyl]sulfamoylacetic acid dihydrochloride] are 4400 nM and 9.8 nM.
In the case of `CC/N=C/N1CCC(Oc2ccc(N(C/C=C/c3cccc(C(=N)N)c3)S(=O)(=O)CC(=O)O)cc2Cl)CC1` [Example 87, N-[3-(3-Amidinophenyl)-2-(E)-propenyl]-N-[3-chloro-4-[1-(N-ethylformimidoyl)piperidin-4-yloxy]phenyl]sulfamoylacetic acid dihydrochloride], the IC50 was found to be 3500 nM on bovine trypsin and 13 nM at human factor-Xa.
The corresponding values for `N=CN1CCC(Oc2ccc(N(C/C=C/c3cccc(C(=N)N)c3)S(=O)(=O)CC(=O)O)cc2Cl)CC1` [Example 48, N-13-(3-Amidinophenyl)-2-(E)-propenyl]-N-[3-chloro-4-(1-formimidoylpiperidin-4-yloxy]phenyl]sulfamoylacetic acid dihydrochloride] are 1200 nM and 5.8 nM.
In the same order, the values of `N=C(N)c1cccc(/C=C/CN(c2ccc(OC3CCN4CCCC4C3)c(Cl)c2)S(=O)(=O)CC(=O)O)c1` (stereo not shown) [Example 42, dihydrochloride] are 7300 nM and 11 nM.
Consider `N=C(N)c1cccc(/C=C/CN(c2ccc(OC3CCN(C4=NCCC4)CC3)c(C(F)(F)F)c2)S(=O)(=O)CC(=O)O)c1` [Example 78, N-[3-(3-Amidinophenyl)-2-(E)-propenyl]-N-[4-[1-(4,5-dihydro-3H-pyrrol-2-yl)piperidin-4-yloxy]-3-trifluoromethylphenyl]sulfamoylacetic acid dihydrochloride], for which the IC50 on bovine trypsin turned out to be 5300 nM; on human factor-Xa, 11 nM.

The record behind these values is US7030138B2, “Benzamidine derivatives” (Sankyo Company, Limited, priority 2001, dated 2006).
